In patent US10077261B2, “Imidazolin-5-one derivative useful as FASN inhibitors for the treatment of cancer” (Janssen Pharmaceutica NV, priority 2012, dated 2018):

Target: T1, hFASN enzyme (full length) (Homo sapiens, UniProt P49327)
T1 construct: 10 μL hFASN enzyme (full length, 300 ng, purified in house); made in house
Assay: Fatty Acid Synthase (FASN) inhibition scintillation proximity assay
Assay type: biochemical
Details: for inhibition at 10 µM: read-out: Human FASN % inhibition @ 10 μM, 10 μM test compound; for IC50: read-out: Human FASN pIC50 (converted); for Human FASN pIC50: hFASN enzyme, full length, "~" means standard error of the pIC50 is larger than 0.5
Procedure, shortened: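 Purified full-length hFASN (300 ng) converts ^3H-acetyl-CoA plus malonyl-CoA to ^3H-palmitate in 100 mM KH2PO4 pH 7.5, 1 mM DTT; compounds tested at 0.01–30 μM. Product captured on streptavidin imaging beads and read by LEADseeker at 610 nm after ≥24 h; 4-parameter logistic fit versus controls.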

T1 sequence (P49327 whole entry): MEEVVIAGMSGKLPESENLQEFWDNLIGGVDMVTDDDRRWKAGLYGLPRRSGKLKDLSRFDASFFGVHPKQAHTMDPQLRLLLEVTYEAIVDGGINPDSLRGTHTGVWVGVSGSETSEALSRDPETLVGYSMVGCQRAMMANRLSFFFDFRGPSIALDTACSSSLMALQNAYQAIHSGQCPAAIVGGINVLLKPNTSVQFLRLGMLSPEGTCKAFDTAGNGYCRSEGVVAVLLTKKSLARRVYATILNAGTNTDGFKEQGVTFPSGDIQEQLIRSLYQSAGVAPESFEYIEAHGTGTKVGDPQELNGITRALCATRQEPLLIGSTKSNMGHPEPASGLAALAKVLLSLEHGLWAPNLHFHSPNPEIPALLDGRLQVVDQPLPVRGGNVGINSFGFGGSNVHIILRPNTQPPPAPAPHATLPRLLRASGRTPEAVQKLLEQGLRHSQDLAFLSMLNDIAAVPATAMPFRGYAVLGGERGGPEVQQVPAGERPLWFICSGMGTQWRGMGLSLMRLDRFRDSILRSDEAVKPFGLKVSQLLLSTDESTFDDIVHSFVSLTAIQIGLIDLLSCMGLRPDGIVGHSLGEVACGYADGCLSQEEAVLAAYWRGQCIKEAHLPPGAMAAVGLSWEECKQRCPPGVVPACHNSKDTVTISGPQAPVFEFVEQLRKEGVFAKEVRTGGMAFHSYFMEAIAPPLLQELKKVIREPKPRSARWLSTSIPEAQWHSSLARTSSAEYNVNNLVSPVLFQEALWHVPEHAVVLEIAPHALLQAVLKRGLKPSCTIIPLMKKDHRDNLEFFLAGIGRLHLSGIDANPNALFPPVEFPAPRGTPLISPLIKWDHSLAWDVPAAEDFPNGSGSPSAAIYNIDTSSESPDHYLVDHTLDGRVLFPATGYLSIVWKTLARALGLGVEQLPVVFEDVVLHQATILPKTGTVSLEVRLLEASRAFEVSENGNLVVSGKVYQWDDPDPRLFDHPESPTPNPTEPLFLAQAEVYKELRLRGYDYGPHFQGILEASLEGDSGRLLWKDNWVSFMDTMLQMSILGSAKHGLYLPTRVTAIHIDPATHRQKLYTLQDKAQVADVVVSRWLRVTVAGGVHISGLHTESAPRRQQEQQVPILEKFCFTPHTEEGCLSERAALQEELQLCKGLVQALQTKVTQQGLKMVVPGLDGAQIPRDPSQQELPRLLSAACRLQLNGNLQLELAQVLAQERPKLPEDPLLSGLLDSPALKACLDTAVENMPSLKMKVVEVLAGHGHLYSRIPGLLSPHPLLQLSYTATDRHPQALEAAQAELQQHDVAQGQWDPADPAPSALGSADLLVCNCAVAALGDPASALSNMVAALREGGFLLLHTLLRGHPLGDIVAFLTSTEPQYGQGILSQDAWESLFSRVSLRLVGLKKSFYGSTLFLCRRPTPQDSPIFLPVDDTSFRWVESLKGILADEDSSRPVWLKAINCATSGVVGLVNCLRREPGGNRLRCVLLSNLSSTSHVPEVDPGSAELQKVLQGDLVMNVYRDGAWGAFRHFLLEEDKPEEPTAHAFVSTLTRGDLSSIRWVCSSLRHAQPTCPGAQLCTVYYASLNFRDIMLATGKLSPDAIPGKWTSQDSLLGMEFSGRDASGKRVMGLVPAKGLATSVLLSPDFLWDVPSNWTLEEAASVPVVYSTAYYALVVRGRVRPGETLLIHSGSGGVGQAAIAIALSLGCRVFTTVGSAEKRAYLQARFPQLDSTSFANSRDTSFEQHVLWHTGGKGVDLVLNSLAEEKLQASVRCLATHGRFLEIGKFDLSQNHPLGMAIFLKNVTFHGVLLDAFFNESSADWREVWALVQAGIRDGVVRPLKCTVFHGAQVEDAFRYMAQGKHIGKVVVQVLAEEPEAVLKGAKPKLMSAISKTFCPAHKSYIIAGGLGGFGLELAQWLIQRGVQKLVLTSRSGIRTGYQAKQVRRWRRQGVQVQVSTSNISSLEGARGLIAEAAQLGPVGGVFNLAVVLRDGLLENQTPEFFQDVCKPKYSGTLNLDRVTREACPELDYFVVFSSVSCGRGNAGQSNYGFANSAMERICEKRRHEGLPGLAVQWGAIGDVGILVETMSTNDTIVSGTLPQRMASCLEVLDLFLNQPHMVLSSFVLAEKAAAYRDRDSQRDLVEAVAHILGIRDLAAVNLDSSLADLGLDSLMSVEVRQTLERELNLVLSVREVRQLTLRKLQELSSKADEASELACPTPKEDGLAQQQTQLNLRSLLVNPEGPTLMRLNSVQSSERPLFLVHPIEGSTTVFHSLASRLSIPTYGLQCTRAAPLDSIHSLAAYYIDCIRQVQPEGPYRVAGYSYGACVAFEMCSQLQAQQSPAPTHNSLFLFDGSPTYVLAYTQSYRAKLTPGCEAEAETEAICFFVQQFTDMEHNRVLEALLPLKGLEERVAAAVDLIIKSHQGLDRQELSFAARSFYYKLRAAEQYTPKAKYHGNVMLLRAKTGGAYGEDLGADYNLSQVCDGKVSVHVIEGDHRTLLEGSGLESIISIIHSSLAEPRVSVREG

| inhibition at 10 µM | IC50 | Human FASN pIC50 | SMILES |
| --- | --- | --- | --- |
| 83% | 1.17 µM | – | CC(C)n1cc(-c2ccc(-c3ccc(C4=NC5(CC5)C(=O)N4CC4CN(C(=O)C5CC5)C4)cc3)cn2)cn1 [compound 516, 6-{[1-(Cyclopropylcarbonyl)azetidin-3-yl]methyl}-5-(4-{6-[1-(1-methylethyl)-1H-pyrazol-4-yl]pyridin-3-yl}phenyl)-4,6-diazaspiro[2.4]hept-4-en-7-one] |
| 70% | 3.72 µM | – | COC(=O)c1cccc(-c2ccc(C3=NC4(CC4)C(=O)N3C[C@@H]3CCN(C(=O)C4CC4)C3)cc2)c1 [compound 401, Methyl 4′-(6-{[(3R)-1-(cyclopropylcarbonyl)pyrrolidin-3-yl]methyl}-7-oxo-4,6-diazaspiro[2.4]hept-4-en-5-yl)biphenyl-3-carboxylate] |
| 39% | > 10 µM | – | Cc1cc(C2=NC3(CC3)C(=O)N2CC2CN(C(=O)C3CC3)C2)ccc1-c1ccc2oc(C)c(C)c2c1 [compound 814, 6-((1-(cyclopropanecarbonyl)azetidin-3-yl)methyl)-5-(4-(2,3-dimethylbenzofuran-5-yl)-3-methylphenyl)-4,6-diazaspiro[2.4]hept-4-en-7-one] |
| 105% | 0.295 µM | – | O=C([C@@H]1CCCO1)N1CC[C@@H](CN2C(=O)C3(CCCC3)N=C2c2ccc(-c3ccc4occc4c3)cc2)C1 [compound 190, 2-(4-(Benzofuran-5-yl)phenyl)-3-(((R)-1-((S)-tetrahydro-furan-2-carbonyl)pyrrolidin-3-yl)methyl)-1,3-diazaspiro[4.4]non-1-en-4-one] |
| 5% | > 10 µM | – | Cn1ncc2cc(-c3ccc(C4=NC5(CCOC5)C(=O)N4CC4CN(S(C)(=O)=O)C4)cc3)ccc21 (centres unmarked) [compound 944, 2-(4-(1-methyl-1H-indazol-5-yl)phenyl)-3-((1-(methylsulfonyl)azetidin-3-yl)methyl)-7-oxa-1,3-diazaspiro[4.4]non-1-en-4-one] |
| 89.5% | 0.0708 µM | – | CC(=O)N1CCC2(CC1)N=C(c1ccc(-c3ccc4[nH]ccc4c3)cc1)N(C[C@@H]1CCN(C(=O)C3CC3)C1)C2=O [compound 147, (R)-2-(4-(1H-Indol-5-yl)phenyl)-8-acetyl-3-((1-(cyclopropanecarbonyl)pyrrolidin-3-yl)methyl)-1,3,8-triazaspiro[4.5]dec-1-en-4-one] |
| 38% | > 10 µM | – | Cn1ncc2cc(-c3ccc(C4=NC5(CCOC5)C(=O)N4CC4CN(C(=O)N5CCCC5)C4)cc3)ccc21 (centres unmarked) [compound 945, 2-(4-(1-methyl-1H-indazol-5-yl)phenyl)-3-((1-(pyrrolidine-1-carbonyl)azetidin-3-yl)methyl)-7-oxa-1,3-diazaspiro[4.4]non-1-en-4-one] |
| 21.3% | > 10 µM | – | O=C(C1CC1)N1CC[C@@H](CN2C(=O)C3(CCCC3)N=C2c2ccc(-c3ccc(-c4nn[nH]n4)cc3)cc2)C1 [compound 91, 3-{[(3R)-1-(Cycloprropylcarbonyl)pyrrolidin-3-yl]methyl}-2-[4′-(2H-tetrazol-5-yl)biphenyl-4-yl]-1,3-diazaspiro[4.4]non-1-en-4-one] |
| 74% | 2 µM | – | CC(O)C(=O)N1CC[C@@H](CN2C(=O)C3(CCOCC3)N=C2c2ccc(-c3ccc(-c4cnn(C)c4)cc3)cc2)C1 (stereo partly drawn) [compound 656, 3-{[(3R)-1-(2-Hydroxypropanoyl)pyrrolidin-3-yl]methyl}-2-[4′-(1-methyl-1H-pyrazol-4-yl)biphenyl-4-yl]-8-oxa-1,3-diazaspiro[4.5]dec-1-en-4-one] |
| 96.4% | 0.525 µM | – | CC(C)N1CCC2(CC1)N=C(c1ccc(-c3ccc4occc4c3)cc1)N(C[C@@H]1CCN(C(=O)C3CC3)C1)C2=O [compound 167, 2-[4-(1-Benzofuran-5-yl)phenyl]-3-{[(3R)-1-(cyclopropylcarbonyl)pyrrolidin-3-yl]methyl}-8-(1-methylethyl)-1,3,8-triazaspiro[4.5]dec-1-en-4-one] |
| 71% | 3.39 µM | – | O=C(C1CC1)N1CC(CN2C(=O)C3(CCN(CCO)CC3)N=C2c2ccc(-c3ccc4[nH]ncc4c3)cc2)C1 [compound 758, 3-{[1-(Cyclopropylcarbonyl)azetidin-3-yl]methyl}-8-(2-hydroxyethyl)-2-[4-(1H-indazol-5-yl)phenyl]-1,3,8-triazaspiro[4.5]dec-1-en-4-one] |
| 41% | > 10 µM | – | O=C(C1CC1)N1CC(CN2C(=O)C3(CC3)N=C2c2ccc(-c3ccc4c(cnn4CC4CC4)c3)cc2)C1 [compound 804, 6-((1-(cyclopropanecarbonyl)azetidin-3-yl)methyl)-5-(4-(1-(cyclopropylmethyl)-1H-indazol-5-yl)phenyl)-4,6-diazaspiro[2.4]hept-4-en-7-one] |
| 63% | ~7.08 µM | – | CC(O)C(=O)N1CC[C@@H](CN2C(=O)C3(CCOC3)N=C2c2ccc(-c3ccc(-c4cnn(C)c4)cc3)cc2)C1 (stereo partly drawn) [compound 677, 3-{[(3R)-1-(2-Hydroxypropanoyl)pyrrolidin-3-yl]methyl}-2-[4′-(1-methyl-1H-pyrazol-4-yl)biphenyl-4-yl]-7-oxa-1,3-diazaspiro[4.4]non-1-en-4-one] |
| 52% | – | 5.05 | Cn1ncc2cc(-c3ccc(C4=NC5(CC5)C(=O)N4C[C@@H]4CCN(C(=O)C5CC5)C4)s3)ccc21 [compound 430, 6-{[(3R)-1-(Cyclopropylcarbonyl)pyrrolidin-3-yl]methyl}-5-[5-(1-methyl-1H-indazol-5-yl)thiophen-2-yl]-4,6-diazaspiro[2.4]hept-4-en-7-one] |
| 72% | ~2.4 µM | – | O=C(C1CC1)N1CC(CN2C(=O)C3(CCOC3)N=C2c2ccc(-c3ccc4occc4c3)cc2)C1 (centres unmarked) [compound 718, 2-[4-(1-Benzofuran-5-yl)phenyl]-3-{[1-(cyclopropylcarbonyl)azetidin-3-yl]methyl}-7-oxa-1,3-diazaspiro[4.4]non-1-en-4-one] |
| 5% | > 10 µM | – | O=C(C1CC1)N1CCC[C@@H](CN2C(=O)C3(CC3)N=C2c2ccc(-c3ccc(O)cc3)cc2)C1 [compound 925, (R)-6-((1-(cyclopropanecarbonyl)piperidin-3-yl)methyl)-5-(4′-hydroxy-[1,1′-biphenyl]-4-yl)-4,6-diazaspiro[2.4]hept-4-en-7-one] |
| -12% | > 10 µM | – | Cn1cc(-c2ccc(-c3ccc(C4=NC5(CCOCC5)C(=O)N4CC4CN(C(=O)C(F)(F)F)C4)cc3)cc2)cn1 [compound 893, 2-(4′-(1-methyl-1H-pyrazol-4-yl)-[1,1′-biphenyl]-4-yl)-3-((1-(2,2,2-trifluoroacetyl)azetidin-3-yl)methyl)-8-oxa-1,3-diazaspiro[4.5]dec-1-en-4-one] |
| 43% | – | 5.06 | Cn1ncc2cc(-c3ncc(C4=NC5(CC5)C(=O)N4C[C@@H]4CCN(C(=O)C5CC5)C4)cn3)ccc21 [compound 459, 6-{[(3R)-1-(Cyclopropylcarbonyl)pyrrolidin-3-yl]methyl}-5-[2-(1-methyl-1H-indazol-5-yl)pyrimidin-5-yl]-4,6-diazaspiro[2.4]hept-4-en-7-one] |
| 79% | 1.45 µM | – | CN(C)CC(=O)N1CCC2(CC1)N=C(c1ccc(-c3ccc(-c4cnn(C)c4)cc3)cc1)N(CC1CN(C(=O)C3CC3)C1)C2=O [compound 768, 3-{[1-(Cyclopropylcarbonyl)azetidin-3-yl]methyl}-8-(N,N-dimethylglycyl)-2-[4′-(1-methyl-1H-pyrazol-4-yl)biphenyl-4-yl]-1,3,8-triazaspiro[4.5]dec-1-en-4-one] |
| 63% | 3.8 µM | – | COC(=O)N1CC2(C1)N=C(c1ccc(-c3ccc4cccnc4c3)cc1)N(C[C@@H]1CCN(C(=O)C(F)(F)F)C1)C2=O [compound 731, Methyl 8-oxo-6-(4-quinolin-7-ylphenyl)-7-{[(3R)-1-(trifluoroacetyl)pyrrolidin-3-yl]methyl}-2,5,7-triazaspiro[3.4]oct-5-ene-2-carboxylate] |
| 57% | ~6.17 µM | – | Cn1cc(-c2ccc(-c3ccc(C4=NC5(CCOC5)C(=O)N4C[C@@H]4CCN(C(=O)N5CCCC5)C4)cc3)cc2)cn1 (stereo partly drawn) [compound 679, 2-[4′-(1-Methyl-1H-pyrazol-4-yl)biphenyl-4-yl]-3-{[(3S)-1-(pyrrolidin-1-ylcarbonyl)pyrrolidin-3-yl]methyl}-7-oxa-1,3-diazaspiro[4.4]non-1-en-4-one] |
| 107% | 0.437 µM | – | Cc1sc2ccc(-c3ccc(C4=NC5(CCN(C(C)C)CC5)C(=O)N4C[C@@H]4CCN(C(=O)C5CC5)C4)cc3)cc2c1C [compound 184, 3-{[(3R)-1-(Cyclopropylcarbonyl)pyrrolidin-3-yl]methyl}-2-[4-(2,3-dimethyl-1-benzothiophen-5-yl)phenyl]-8-(1-methylethyl)-1,3,8-triazaspiro[4.5]dec-1-en-4-one] |
| 33.7% | – | – | N#Cc1ccc(-c2ccc(C3=NC4(CC4)C(=O)N3CC3CCN(C(=O)C4CC4)CC3)cc2)cc1 [compound 7, 4′-(6-{[1-(Cyclopropylcarbonyl)piperidin-4-yl]methyl}-7-oxo-4,6-diazaspiro[2.4]hept-4-en-5-yl)biphenyl-4-carbonitrile] |
| 2% | > 10 µM | – | COC(=O)N1CC2(C1)N=C(c1ccc(-c3ccc4c(cnn4C)c3)cc1)N(C[C@@H]1CCN(S(C)(=O)=O)C1)C2=O [compound 917, (S)-methyl 6-(4-(1-methyl-1H-indazol-5-yl)phenyl)-7-((1-(methylsulfonyl)pyrrolidin-3-yl)methyl)-8-oxo-2,5,7-triazaspiro[3.4]oct-5-ene-2-carboxylate] |
